# Data published in patent publication US20130165483A1, “HETEROARYLS AND USES THEREOF” (MILLENNIUM PHARMACEUTICALS, INC., priority 2011, published 2013).
# Biological target: T1, VPS34 (Homo sapiens, UniProt Q8NEB9)
# T1 construct: GST (N); host or cells: SF9 insect cells (baculovirus)
# Assay: Human VPS34 enzyme assay (Adapta TR-FRET)
# Type: biochemical
# Details: for inhibition at 1.11 µM: 1 h, at a 1.11 μM concentration, read-out: VPS34 Percent Inhibition; for IC50: VPS34 enzyme
# Procedure: VPS34 (accession number GB:BC033004) was cloned into pDEST20-Thombin as N-terminal GST tagged fusion proteins using the Gateway system (Invitrogen, catalog#11804-013). The sequences were verified before recombinant protein expression using the Baculovirus Expression System with Gateway® Technology.
# For expression VPS34 was infected at 1MOI in SF9 cells and harvested 72 hours post infection.
# For purification, VPS34 is purified by Glutathione Sepharose 4 Fast Flow (GE Healthcare #17-5132-03) followed by HiTrap Q (GE Healthcare #17-1153-01).
# Human VPS34 enzyme assay method
# 100mL compounds in DMSO are added to wells of a 384 well microtitre plate (Greiner 780076). At room temperature: 5ul VPS34 reaction buffer (Invitrogen Assay Buffer Q (diluted 1 in 5 with nanopure water) plus 2 mM DTT and 2 mM MnCl2) containing ATP (20 uM, Promega) and 200 uM PI—PS substrate (Invitrogen PV5122) is added followed immediately by 5ul VPS34 reaction buffer (as above) containing VPS34 (5 nM, Millennium Protein Sciences Group) and the mixture is incubated with shaking at room temperature for 1 hour. Then 5ul VPS34 stop-detect mix (as per Invitrogen Adapta Assay kit (PV5009) instructions (contains kinase quench buffer, TR-FRET buffer, Adapta Eu anti-ADP antibody and Alexa Fluor 647 ADP tracer)) is added to quench the reaction. The plates are then incubated for 30 minutes at room temperature with shaking and then read on a BMG PheraStar Plus reader.
# For the assay methods described above, test compound percent inhibition, at various concentrations, is calculated relative to control (DMSO and EDTA) treated samples. Compound concentration versus percent inhibition curves are fitted to generate IC50 values. One skilled in the art will appreciate that the values generated either as percentage inhibition at a single concentration or IC50 values are subject to experimental variation.
# T1 sequence (Q8NEB9 whole entry): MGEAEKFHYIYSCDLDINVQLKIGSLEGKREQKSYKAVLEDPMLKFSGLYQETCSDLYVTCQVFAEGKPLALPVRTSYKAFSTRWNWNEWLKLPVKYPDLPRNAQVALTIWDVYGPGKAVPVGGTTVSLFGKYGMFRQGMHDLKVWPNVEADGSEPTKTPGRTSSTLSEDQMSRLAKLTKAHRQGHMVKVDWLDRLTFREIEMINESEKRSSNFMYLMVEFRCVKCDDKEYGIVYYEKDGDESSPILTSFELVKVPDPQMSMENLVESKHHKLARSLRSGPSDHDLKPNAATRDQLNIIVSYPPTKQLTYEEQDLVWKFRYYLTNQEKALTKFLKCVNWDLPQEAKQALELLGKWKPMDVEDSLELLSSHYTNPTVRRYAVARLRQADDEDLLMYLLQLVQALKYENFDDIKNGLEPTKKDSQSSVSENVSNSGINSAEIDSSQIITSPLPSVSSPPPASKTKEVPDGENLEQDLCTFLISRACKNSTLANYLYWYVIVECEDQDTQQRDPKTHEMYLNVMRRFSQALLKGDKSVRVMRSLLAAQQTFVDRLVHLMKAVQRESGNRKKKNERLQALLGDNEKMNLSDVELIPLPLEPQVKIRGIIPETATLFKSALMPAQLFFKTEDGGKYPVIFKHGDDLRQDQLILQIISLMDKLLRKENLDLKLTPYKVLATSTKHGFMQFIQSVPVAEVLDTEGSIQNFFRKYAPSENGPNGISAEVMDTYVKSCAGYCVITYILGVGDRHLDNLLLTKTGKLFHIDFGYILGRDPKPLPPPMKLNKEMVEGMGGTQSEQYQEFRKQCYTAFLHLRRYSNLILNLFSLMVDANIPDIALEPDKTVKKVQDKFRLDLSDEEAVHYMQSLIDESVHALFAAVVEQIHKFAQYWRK
Compound,inhibition at 1.11 µM,IC50
"CC(=O)Nc1cc(-c2cc(-c3ccccc3Cl)n(-c3nccs3)n2)ccn1 [I-3, N-[4-[5-(2-chlorophenyl)-1-(1,3-thiazol-2-yl)-1H-pyrazol-3-yl]pyridin-2-yl]acetamide]",6%,1000 to 10000 nM
"CC(=O)Nc1cc(-c2cc(C(N)=O)n(-c3ccccc3Cl)n2)ccn1 [I-14, 3-(2-acetamidopyridin-4-y1)-1-(2-chlorophenyl)-1H-pyrazole-5-carboxamide]",45%,1000 to 10000 nM
"CC(=O)Nc1cc(-c2cc(-c3nnc[nH]3)n(-c3ccc(Cl)cc3Cl)n2)ccn1 [I-15, N-{4-[1-(2,4-dichlorophenyl)-5-(4H-1,2,4-triazol-3-yl)-1H-pyrazol-3-yl]pyridin-2-yl}acetamide]",> 99%,< 100 nM
"CC(=O)Nc1cc(-c2cc(-c3nnc[nH]3)n(-c3ccccc3Cl)n2)ccn1 [I-21, N-{4-[1-(2-chlorophenyl)-5-(1H-1,2,4-triazol-3-yl)-1H-pyrazol-3-yl]pyridin-2-yl}acetamide]",96%,100 to 1000 nM
"CCn1cc(-c2nnc[nH]2)cc1-c1ccnc(NC(C)=O)c1 [I-86, N-{4-[1-ethyl-4-(4H-1,2,4-triazol-3-yl)-1H-pyrrol-2-yl]pyridin-2-yl}acetamide]",> 99%,100 to 1000 nM
"CC(=O)Nc1cc(-c2cc(-c3nnc[nH]3)cn2CC2CC2)ccn1 [I-87, N-{4-[1-(cyclopropylmethyl)-4-(4H-1,2,4-triazol-3-yl)-1H-pyrrol-2-yl]pyridin-2-yl}acetamide]",93%,100 to 1000 nM
"C=CCn1cc(-c2cc(NC(=O)C3CC3)ncc2C)cc1-c1nc[nH]n1 [I-88, N-{4-[1-allyl-5-(1H-1,2,4-triazol-3-yl)-1H-pyrrol-3-yl]-5-methylpyridin-2-yl}cyclopropanecarboxamide]",69%,< 100 nM
"CC(=O)Nc1cc(-c2cc(C(N)=O)n(-c3ccc(N)cc3Cl)c2)c(C)cn1 [I-89, 4-(2-acetamido-5-methylpyridin-4-yl)-1-(4-amino-2-chlorophenyl)-1H-pyrrole-2-carboxamide]",> 99%,< 100 nM
"CC(=O)Nc1cc(-c2cc(C(N)=O)n(-c3ncccc3Cl)c2)c(C)cn1 [I-90, 4-(2-acetamido-5-methylpyridin-4-yl)-1-(3-chloropyridin-2-yl)-1H-pyrrole-2-carboxamide]",39%,1000 to 10000 nM
"CC(=O)Nc1cc(-c2cc(-c3nnc[nH]3)n(CC3CC3)c2)c(C)cn1 [I-91, N-{4-[1-(cyclopropylmethyl)-5-(4H-1,2,4-triazol-3-yl)-1H-pyrrol-3-yl]-5-methylpyridin-2-yl}acetamide]",> 99%,< 100 nM
"CC(=O)Nc1cc(-c2cc(C(N)=O)n(CC3CC3)c2)c(C)cn1 [I-92, 4-(2-acetamido-5-methylpyridin-4-yl)-1-(cyclopropylmethyl)-1H-pyrrole-2-carboxamide]",68%,100 to 1000 nM
"CC(=O)Nc1cc(-c2cc(-c3nc[nH]n3)n(-c3ccccc3Cl)c2)c(C)cn1 [I-93, N-{4-[1-(2-chlorophenyl)-5-(1H-1,2,4-triazol-3-yl)-1H-pyrrol-3-yl]-5-methylpyridin-2-yl}acetamide]",> 99%,< 100 nM
"CCCn1cc(-c2cc(NC(=O)C3CC3)ncc2C)cc1-c1nc[nH]n1 [I-94, N-{5-methyl-4-[1-propyl-5-(4H-1,2,4-triazol-3-yl)-1H-pyrrol-3-yl]pyridin-2-yl}cyclopropanecarboxamide]",> 99%,100 to 1000 nM
"CC(=O)Nc1cc(-c2cc(C(N)=O)c(-c3ccnc(NC(C)=O)c3)n2C)ccn1 [I-95, 2,5-bis(2-acetamidopyridin-4-yl)-1-methyl-1H-pyrrole-3-carboxamide]",18%,1000 to 10000 nM
CC(=O)Nc1cc(-c2cc(-c3nc[nH]n3)n(-c3ncccc3Cl)c2)c(C)cn1 [I-96],96%,100 to 1000 nM
"CC(=O)Nc1cc(-c2cc(C(N)=O)n(-c3ccccc3Cl)c2)c(C)cn1 [I-97, 4-(2-acetamido-5-methylpyridin-4-yl)-1-(2-chlorophenyl)-1H-pyrrole-2-carboxamide]",96%,100 to 1000 nM
"Cc1cnc(NC(=O)C2CC2)cc1-c1cc(-c2nc[nH]n2)n(-c2ccccc2Cl)c1 [I-98, N-{4-[1-(2-chlorophenyl)-5-(1H-1,2,4-triazol-3-yl)-1H-pyrrol-3-yl]-5-methylpyridin-2-yl}cyclopropanecarboxamide]",> 99%,< 100 nM
"Cc1cnc(NC(=O)C2CC2)cc1-c1cc(C(N)=O)n(-c2ccccc2Cl)c1 [I-99, 1-(2-chlorophenyl)-4-{2-[(cyclopropylcarbonyl)amino]-5-methylpyridin-4-yl}-1H-pyrrole-2-carboxamide]",93%,100 to 1000 nM
"CCn1cc(C(N)=O)cc1-c1ccnc(NC(C)=O)c1 [I-100, 5-(2-acetamidopyridin-4-yl)-1-ethyl-1H-pyrrole-3-carboxamide]",54%,100 to 1000 nM
"CC(=O)Nc1cc(-c2cc(-c3ccccc3C)c(-c3nnc[nH]3)[nH]2)ccn1 [I-101, N-{4-[4-(2-methylphenyl)-5-(4H-1,2,4-triazol-3-yl)-1H-pyrrol-2-yl]pyridin-2-yl}acetamide]",60%,100 to 1000 nM
"CC(=O)Nc1cc(-c2cc(-c3ccccc3C)c(C(N)=O)[nH]2)ccn1 [I-102, 5-(2-acetamidopyridin-4-yl)-3-(2-methylphenyl)-1H-pyrrole-2-carboxamide]",96%,100 to 1000 nM
"CC(=O)Nc1cc(-c2cc(-c3ccccc3C)c(-c3nc[nH]n3)n2C)ccn1 [I-103, N-{4-[1-methyl-4-(2-methylphenyl)-5-(1H-1,2,4-triazol-3-yl)-1H-pyrrol-2-yl]pyridin-2-yl}acetamide]",39%,1000 to 10000 nM
"CC(=O)Nc1cc(-c2cc(-c3ccccc3C)c(C(N)=O)n2C)ccn1 [I-104, 5-(2-acetamidopyridin-4-yl)-1-methyl-3-(2-methylphenyl)-1H-pyrrole-2-carboxamide]",7%,1000 to 10000 nM
